Laboratory results reported in paper PMC4893804 (Journal of medicinal chemistry, 2015).
Like-named read-outs stand apart in the source and are kept apart here.

Columns and labels:
Type in all cases: biochemical
HIV-1 RT = HIV-1 RT (Human immunodeficiency virus type 1 group M subtype B, UniProt P03366); test: HIV-1 reverse transcriptase assay with homopolymeric template/primers; settings: poly rA.dT template/primer, [3H]dTTP
[1] = target: HCMV DNA polymerase (UL54) (Human cytomegalovirus, UniProt P08546); test: Enzyme assay with HCMV DNA polymerase; settings: for IC50: activated calf thymus DNA, [3H]dTTP; for superior activity against HCMV DNA polymerase compared to thymine-α-CNP: ratio vs thymine-α-CNP
HSV-1 DNA polymerase = HSV-1 DNA polymerase (Human herpesvirus 1, UniProt P04293); test: Enzyme assay with HSV-1 DNA polymerase
VZV DNA polymerase = VZV DNA polymerase (Varicella-zoster virus, UniProt P09252); test: Enzyme assay with VZV DNA polymerase
Human DNA Pol α = target: T1, Human DNA Pol α (Homo sapiens, UniProt P09884); test: Enzyme assay with human DNA polymerase α
T1 sequence (P09884 1-1462): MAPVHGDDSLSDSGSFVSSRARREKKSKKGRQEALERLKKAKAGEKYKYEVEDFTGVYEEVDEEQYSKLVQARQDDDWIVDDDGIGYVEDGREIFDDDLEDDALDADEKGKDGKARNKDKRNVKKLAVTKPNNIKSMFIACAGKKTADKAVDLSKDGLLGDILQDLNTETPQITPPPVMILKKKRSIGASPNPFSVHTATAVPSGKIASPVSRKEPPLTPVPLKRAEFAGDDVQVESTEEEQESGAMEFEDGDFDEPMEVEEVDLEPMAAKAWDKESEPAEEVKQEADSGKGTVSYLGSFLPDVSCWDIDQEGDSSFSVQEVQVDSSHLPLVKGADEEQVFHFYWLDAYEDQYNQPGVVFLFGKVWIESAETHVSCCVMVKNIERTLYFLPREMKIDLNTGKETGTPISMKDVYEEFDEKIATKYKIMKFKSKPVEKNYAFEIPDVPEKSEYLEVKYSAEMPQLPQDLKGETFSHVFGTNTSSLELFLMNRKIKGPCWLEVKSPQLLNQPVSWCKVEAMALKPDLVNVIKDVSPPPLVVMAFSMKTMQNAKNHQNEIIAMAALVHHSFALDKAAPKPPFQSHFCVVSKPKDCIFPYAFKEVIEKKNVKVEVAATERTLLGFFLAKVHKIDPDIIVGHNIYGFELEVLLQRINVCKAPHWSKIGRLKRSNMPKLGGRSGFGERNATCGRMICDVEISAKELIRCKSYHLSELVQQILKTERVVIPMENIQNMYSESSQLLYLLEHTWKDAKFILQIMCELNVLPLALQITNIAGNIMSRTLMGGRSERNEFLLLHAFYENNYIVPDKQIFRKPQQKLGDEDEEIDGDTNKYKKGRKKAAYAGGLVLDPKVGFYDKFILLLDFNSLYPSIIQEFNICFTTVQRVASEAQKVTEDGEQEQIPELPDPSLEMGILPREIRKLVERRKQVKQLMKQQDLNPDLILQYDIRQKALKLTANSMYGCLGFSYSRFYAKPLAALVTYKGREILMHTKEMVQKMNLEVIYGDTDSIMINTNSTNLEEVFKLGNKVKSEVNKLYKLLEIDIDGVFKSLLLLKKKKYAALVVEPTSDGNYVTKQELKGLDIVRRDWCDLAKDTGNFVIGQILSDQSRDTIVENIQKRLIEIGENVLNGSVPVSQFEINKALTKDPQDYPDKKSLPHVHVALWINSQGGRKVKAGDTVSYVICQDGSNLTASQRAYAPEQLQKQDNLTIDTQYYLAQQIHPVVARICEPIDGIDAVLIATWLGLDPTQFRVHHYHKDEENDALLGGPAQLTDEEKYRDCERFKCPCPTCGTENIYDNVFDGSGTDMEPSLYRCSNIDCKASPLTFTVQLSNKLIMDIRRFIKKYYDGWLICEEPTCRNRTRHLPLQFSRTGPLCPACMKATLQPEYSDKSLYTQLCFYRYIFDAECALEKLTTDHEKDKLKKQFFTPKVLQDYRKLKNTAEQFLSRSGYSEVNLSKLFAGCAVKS

Human DNA Pol β = Human DNA Pol β (Homo sapiens, UniProt P06746); test: Enzyme assay with human DNA polymerase β
[2] = read-out: IC50 HSV-1 DNA Pol, activated calf thymus DNA, [3H]dTTP
[3] = read-out: IC50 VZV DNA Pol, poly dA.oligo dT, [3H]dTTP
[4] = read-out: IC50 Human DNA Pol α, activated calf thymus DNA, [3H]dTTP
[5] = read-out: IC50 Human DNA Pol β, activated calf thymus DNA, [3H]dTTP

HSV-1 DNA polymerase, sequence (P04293 whole entry): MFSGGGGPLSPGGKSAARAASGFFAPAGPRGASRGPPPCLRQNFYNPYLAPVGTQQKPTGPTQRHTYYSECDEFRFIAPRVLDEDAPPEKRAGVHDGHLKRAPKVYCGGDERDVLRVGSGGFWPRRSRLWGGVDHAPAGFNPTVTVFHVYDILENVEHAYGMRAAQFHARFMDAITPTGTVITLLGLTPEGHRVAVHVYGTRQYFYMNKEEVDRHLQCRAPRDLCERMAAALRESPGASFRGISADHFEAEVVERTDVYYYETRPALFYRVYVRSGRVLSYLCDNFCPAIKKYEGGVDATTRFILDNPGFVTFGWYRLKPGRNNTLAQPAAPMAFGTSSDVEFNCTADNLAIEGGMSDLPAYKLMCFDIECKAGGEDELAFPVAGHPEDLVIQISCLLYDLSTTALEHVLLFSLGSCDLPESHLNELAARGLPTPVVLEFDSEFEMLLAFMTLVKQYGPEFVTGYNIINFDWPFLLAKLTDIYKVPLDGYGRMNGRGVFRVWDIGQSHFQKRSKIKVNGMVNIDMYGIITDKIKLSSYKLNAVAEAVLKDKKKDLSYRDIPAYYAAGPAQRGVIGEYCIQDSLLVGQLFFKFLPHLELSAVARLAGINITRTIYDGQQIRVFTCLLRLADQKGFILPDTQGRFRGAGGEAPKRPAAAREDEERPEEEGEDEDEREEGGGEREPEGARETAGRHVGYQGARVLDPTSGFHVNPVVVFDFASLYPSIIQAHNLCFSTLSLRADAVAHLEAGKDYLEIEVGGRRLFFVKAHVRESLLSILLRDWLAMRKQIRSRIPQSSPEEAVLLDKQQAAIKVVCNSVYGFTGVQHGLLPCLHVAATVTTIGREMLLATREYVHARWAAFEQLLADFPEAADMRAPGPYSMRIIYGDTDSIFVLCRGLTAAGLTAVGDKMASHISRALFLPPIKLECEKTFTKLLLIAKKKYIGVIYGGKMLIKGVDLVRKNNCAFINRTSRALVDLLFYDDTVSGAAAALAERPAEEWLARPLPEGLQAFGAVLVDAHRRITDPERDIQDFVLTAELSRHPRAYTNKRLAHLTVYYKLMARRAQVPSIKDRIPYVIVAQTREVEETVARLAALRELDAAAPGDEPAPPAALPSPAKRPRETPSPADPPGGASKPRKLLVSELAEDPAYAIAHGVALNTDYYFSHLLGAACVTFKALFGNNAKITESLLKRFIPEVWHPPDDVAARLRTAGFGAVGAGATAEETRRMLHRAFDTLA
VZV DNA polymerase, sequence (P09252 whole entry): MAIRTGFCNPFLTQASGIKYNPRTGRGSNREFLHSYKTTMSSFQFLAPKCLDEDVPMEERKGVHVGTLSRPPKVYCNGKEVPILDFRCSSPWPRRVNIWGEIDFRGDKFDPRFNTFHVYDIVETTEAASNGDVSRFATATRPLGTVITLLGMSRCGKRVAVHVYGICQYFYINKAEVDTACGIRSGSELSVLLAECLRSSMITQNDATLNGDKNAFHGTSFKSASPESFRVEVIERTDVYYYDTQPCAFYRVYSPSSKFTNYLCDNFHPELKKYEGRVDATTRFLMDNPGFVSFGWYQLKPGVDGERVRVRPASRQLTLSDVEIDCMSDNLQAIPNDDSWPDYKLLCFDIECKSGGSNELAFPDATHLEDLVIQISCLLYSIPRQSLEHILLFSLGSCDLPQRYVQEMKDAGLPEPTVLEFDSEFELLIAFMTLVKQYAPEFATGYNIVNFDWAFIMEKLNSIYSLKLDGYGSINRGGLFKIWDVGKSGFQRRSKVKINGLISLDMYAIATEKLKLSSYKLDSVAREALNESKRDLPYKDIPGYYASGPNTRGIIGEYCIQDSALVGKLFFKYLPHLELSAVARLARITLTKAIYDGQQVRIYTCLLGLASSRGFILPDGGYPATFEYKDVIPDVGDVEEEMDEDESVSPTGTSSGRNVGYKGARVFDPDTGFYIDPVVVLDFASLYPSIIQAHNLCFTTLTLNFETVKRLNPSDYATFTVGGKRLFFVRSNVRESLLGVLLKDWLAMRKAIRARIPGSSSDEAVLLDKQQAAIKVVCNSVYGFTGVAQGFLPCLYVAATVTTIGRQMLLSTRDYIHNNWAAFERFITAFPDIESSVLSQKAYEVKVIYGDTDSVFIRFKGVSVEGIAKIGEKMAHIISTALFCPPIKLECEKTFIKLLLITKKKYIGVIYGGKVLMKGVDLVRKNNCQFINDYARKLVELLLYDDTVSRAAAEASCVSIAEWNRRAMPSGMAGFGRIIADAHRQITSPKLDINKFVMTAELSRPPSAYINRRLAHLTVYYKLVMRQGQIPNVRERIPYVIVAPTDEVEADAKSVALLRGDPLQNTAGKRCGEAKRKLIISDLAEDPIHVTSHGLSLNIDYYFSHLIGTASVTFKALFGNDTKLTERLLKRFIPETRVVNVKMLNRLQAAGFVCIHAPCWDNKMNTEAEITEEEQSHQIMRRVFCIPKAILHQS
HCMV DNA polymerase (UL54), sequence (P08546 whole entry): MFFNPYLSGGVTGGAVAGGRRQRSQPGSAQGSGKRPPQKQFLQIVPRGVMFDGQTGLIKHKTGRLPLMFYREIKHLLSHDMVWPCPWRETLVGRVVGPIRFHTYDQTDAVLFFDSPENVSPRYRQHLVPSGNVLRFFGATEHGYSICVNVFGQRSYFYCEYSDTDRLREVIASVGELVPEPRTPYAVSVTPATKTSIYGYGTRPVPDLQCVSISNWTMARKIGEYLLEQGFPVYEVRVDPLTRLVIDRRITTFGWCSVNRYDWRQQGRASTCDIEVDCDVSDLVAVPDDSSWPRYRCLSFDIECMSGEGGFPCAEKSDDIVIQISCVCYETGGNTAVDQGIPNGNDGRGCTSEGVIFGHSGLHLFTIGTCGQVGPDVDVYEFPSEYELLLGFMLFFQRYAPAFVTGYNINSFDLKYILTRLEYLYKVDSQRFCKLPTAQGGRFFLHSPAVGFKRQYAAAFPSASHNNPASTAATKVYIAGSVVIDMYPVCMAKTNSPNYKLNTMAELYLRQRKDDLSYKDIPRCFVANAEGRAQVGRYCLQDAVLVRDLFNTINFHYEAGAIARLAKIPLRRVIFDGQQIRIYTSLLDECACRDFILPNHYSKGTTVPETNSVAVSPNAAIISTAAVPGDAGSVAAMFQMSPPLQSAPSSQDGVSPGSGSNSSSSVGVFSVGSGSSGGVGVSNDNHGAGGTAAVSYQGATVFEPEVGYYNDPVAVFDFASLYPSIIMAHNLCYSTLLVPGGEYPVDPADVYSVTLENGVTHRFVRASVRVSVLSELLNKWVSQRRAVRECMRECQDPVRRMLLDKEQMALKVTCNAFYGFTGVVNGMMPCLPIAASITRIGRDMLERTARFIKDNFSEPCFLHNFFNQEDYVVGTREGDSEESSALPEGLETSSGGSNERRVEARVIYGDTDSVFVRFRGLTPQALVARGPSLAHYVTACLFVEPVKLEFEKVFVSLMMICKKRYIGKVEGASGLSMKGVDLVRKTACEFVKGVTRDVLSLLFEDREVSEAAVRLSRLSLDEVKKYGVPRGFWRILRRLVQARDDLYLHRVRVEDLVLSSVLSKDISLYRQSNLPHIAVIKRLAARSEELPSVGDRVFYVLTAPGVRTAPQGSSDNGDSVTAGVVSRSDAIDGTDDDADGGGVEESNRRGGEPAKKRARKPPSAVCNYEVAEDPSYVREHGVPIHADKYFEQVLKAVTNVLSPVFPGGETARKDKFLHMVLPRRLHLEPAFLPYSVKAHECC

Row | SMILES | IC50 (HIV-1 RT; read-out: IC50 HIV-1 RT) | IC50 ([1]; read-out: IC50 HCMV DNA Pol) | IC50 (HSV-1 DNA polymerase; [2]) | IC50 (VZV DNA polymerase; [3]) | IC50 (Human DNA Pol α; [4]) | IC50 (Human DNA Pol β; [5]) | superior activity against HCMV DNA polymerase compared to thymine-α-CNP [1] | IC50 (HIV-1 RT; IC50 HIV-1 RT) | IC50 ([1]; IC50 HCMV DNA Pol) | IC50 (HSV-1 DNA polymerase) | IC50 (VZV DNA polymerase) | IC50 (Human DNA Pol α) | IC50 (Human DNA Pol β) | more active against HSV-1 DNA polymerase than thymine-α-CNP (HSV-1 DNA polymerase; ratio vs thymine-α-CNP) | more active against VZV DNA polymerase than thymine-α-CNP (VZV DNA polymerase; ratio vs thymine-α-CNP)
1 | Cc1cn(C[C@H]2CCC[C@H]2COC(C(=O)O)P(=O)(O)O)c(=O)[nH]c1=O (relative stereo) [Compound 6a] | ≥ 500 µM | 40 ± 25 µM | 14 ± 14 µM | 73 ± 1 µM | 165 ± 100 µM | > 500 µM |  |  |  |  |  |  |  |  | 
2 | Cc1cn(C[C@H]2C[C@H]2COC(C(=O)O)P(=O)(O)O)c(=O)[nH]c1=O (relative stereo) [Compound 6b] | 440 ± 85 µM | 4.6 ± 0.2 µM | 36 ± 12 µM | 12 ± 3 µM | 183 ± 8 µM | 390 ± 127 µM | 8- to 13 fold |  |  |  |  |  |  |  | 
3 | Cc1cn(C[C@H]2CC=CC[C@H]2COC(C(=O)O)P(=O)(O)O)c(=O)[nH]c1=O (relative stereo) [Compound 6c] | 425 ± 106 µM | 3 ± 0.5 µM | 14 ± 3 µM | 8.5 ± 2.1 µM | 48 ± 36 µM | > 500 µM | 8- to 13 fold |  |  |  |  |  |  |  | 
4 | Cc1cn(C[C@H]2CCCC[C@H]2COC(C(=O)O)P(=O)(O)O)c(=O)[nH]c1=O (relative stereo) [Compound 6e] | ≥ 500 µM | 4 µM | 8.6 ± 6.6 µM | 16 ± 1 µM | 69 ± 21 µM | > 500 µM | 8- to 13 fold |  |  |  |  |  |  |  | 
5 | O=c1[nH]c(=O)n([C@H]2C[C@H](O)[C@@H](COP(=O)(O)OP(=O)(O)OP(=O)(O)O)O2)cc1/C=C/Br [BVDU-TP, (E)-5-(2-Bromovinyl)-2′-deoxyuridine-5′-triphosphate, reference compound] |  |  |  |  |  |  |  | 0.89 ± 0.4 µM | 3.6 ± 0.7 µM | 1.9 ± 0.9 µM | 0.49 ± 0.09 µM | 21 ± 10 µM | 26 ± 4 µM |  | 
6 | Cc1cn(Cc2ccccc2COC(C(=O)O)P(=O)(O)O)c(=O)[nH]c1=O (stereo not shown) [Compound 6d, 2-(2-((2,4-Dioxo-5-methyl-pyrimidin-1-yl)methyl)benzyloxy)-2-phosphonoacetic acid] |  |  |  |  |  |  | ~ 3 fold | 131 ± 86 µM |  | 7.5 ± 5 µM | 2.9 ± 0.7 µM | 75 ± 18 µM | 76 ± 30 µM | ~ 3 fold | 13 fold
7 | Cc1cn(Cc2cn(CCOC(C(=O)O)P(=O)(O)O)nn2)c(=O)[nH]c1=O (stereo not shown) [Compound 6f, 2-(2-(4-((5-methyl-2,4-dioxo-3,4-dihydropyrimidin-1(2H)-yl)methyl)-1H-1,2,3-triazol-1-yl)ethoxy)-2-phosphonoacetic acid] |  |  |  |  |  |  |  | > 500 µM | 38 ± 6 µM | 25 ± 21 µM | 24 ± 4 µM | 332 ± 28 µM | 361 ± 160 µM |  | 
8 | Cc1cn(CCCCOC(C(=O)O)P(=O)(O)O)c(=O)[nH]c1=O (stereo not shown) [Compound 6h, 2-(4-(2,4-Dioxo-5-methyl-pyrimidin-1-yl)butyloxy)-2-phosphonoacetic acid] |  |  |  |  |  |  |  | 145 ± 106 µM |  | 45 ± 27 µM | 27 ± 12 µM | 301 ± 51 µM | 450 ± 105 µM |  | 
